In patent publication US20150005288A1, “SUBSTITUTED PHENYLIMIDAZOPYRAZOLES AND USE THEREOF” (Bayer Intellectual Property GmbH, priority 2012, published 2015) one finds IC50 data, which are given here for 19 compounds.

One test has as its target T1, endogenous Tie2 receptor (Homo sapiens, UniProt Q02763).
T1 construct: the endogenous Tie2 receptor; host or cells: HUVEC (human umbilical vein endothelial cells)
The test can be described thus: Tie2-pTyr-ELISA: autophosphorylation of endogenous Tie2 receptor in HUVEC. Particulars: autophosphorylation elevated by sodium orthovanadate (4 mM), Tie2/phosphotyrosine sandwich ELISA, from 2-7 independent measurements. Format: cell-based. The method, then:
The cellular activity of the compounds according to the invention as Tie2 kinase inhibitors was determined in human endothelial cells (HUVEC) by measuring the inhibition of the autophosphorylation, elevated by treatment with sodium orthovanadate, of the endogenous Tie2 receptor by means of a Tie2/phosphotyrosine sandwich ELISA.
Human endothelial cells (human umbilical vein endothelial cells, HUVEC) were obtained from Cellsystems (FC-0003), cultured in Vasculife VEGF complete medium (Cellsystems, LL-1020) with 2% foetal calf serum (FCS) at 37° C./5% CO2 and used for Tie2-ELISA measurements up to passage 8.
HUVEC were plated in a culture volume of 100 μl of Vasculife VEGF complete medium at a cell density of 30 000 cells per well in transparent collagen-coated 96-well cell culture plates (Falcon, #353075) and incubated in an incubation cabinet at 37° C./5% CO2 overnight. The test substances dissolved in DMSO were used to prepare in each case one dilution series in Vasculife VEGF low-serum medium [basal medium with LifeFactors (Cellsystems, LM-0002), without FCS, with 0.1% BSA] without sodium orthovanadate and one dilution series in Vasculife VEGF low-serum-medium with 8 mM sodium orthovanadate in the desired concentrations in the range from 10 pM to 10 μM, the final DMSO concentration being 1%. After removal of the complete medium, 100 μl per well of the dilute substances in low-serum medium without sodium orthovanadate were pipetted onto the cells, and the plates were incubated in an incubation cabinet at 37° C./5% CO2 for 10 min. A further 100 μl of the same substance dilution in low-serum medium with 8 mM sodium orthovanadate were then pipetted into the respective well and the cells were incubated in a volume of now 200 μl in the presence of 4 mM sodium orthovanadate at the desired substance concentration in an incubation cabinet at 37° C./5% CO2 for a further 20 min. The cell supernatant of the plates was then removed and the cells were washed once with 250 μl per well of cold PBS which contained 4 mM sodium orthovanadate. 120 μl of Duschl lysis buffer [50 mM HEPES pH 7.2, 150 mM NaCl, 1 mM MgCl2, 10% glycerol, 1.5% Triton X-100, 4 mM sodium orthovanadate, 250 μl S-PIC phosphatase inhibitor cocktail 2 (Sigma, P5726) and 1 tablet of Complete proteinase inhibitor mixture (Roche, #1836145) per 10 ml] were then added to the cells in each well. The plates were shaken briefly and then incubated on ice for 20 min, and the lysates in the cell culture plates were then frozen at −80° C. for at least 30 min.
For measuring the autophosphorylation of the endogenous Tie2 receptor in the cell lysates prepared, a self-prepared anti-Tie2 antibody directed against the N-terminus of the Tie-2 receptor (1.09 mg/ml) and an HRP-coupled anti-phosphotyrosine antibody (Sigma, A4595, clone pY-20) were used. White 96-well ELISA plates (Lumitrac600, Greiner, #655074) were incubated with 100 μl per well of a 1:1000 dilution of the anti-Tie2 antibody in coating buffer [15 mM Na2CO3, 35 mM NaHCO3, pH 9.6] with shaking at 4° C. overnight. The coated ELISA plates were washed three times with 250 μl PBST buffer [0.1% Tween-20 in PBS], the wells were blocked with 250 μl 3% BSA in PBST buffer with shaking at RT for 1-6 h and washed three more times with 250 μl PBST buffer. From the cell lysate plates thawed in the fridge, in each case 100 μl of lysate were transferred into the coated wells of the ELISA plates, and the plates were incubated with shaking at 4° C. overnight. The plates were washed three times with in each case 250 μl of PBST buffer, and 100 μl of a 1:5000 dilution of the anti-phosphotyrosine HRP antibody in 3% Prionex (Calbiochem, #529600) in PBST were then pipetted into each well and the plates were incubated with shaking and protected from light at 4° C. overnight. […]

Test [1] addresses T2, intracellular domain of human Tie2 (GST fusion protein) (Homo sapiens, UniProt Q02763).
T2 construct: intracellular domain of human Tie2 (amino acids 776-1124); made in house; host or cells: Baculovirus-infected insect cells (Hi5)
The test can be described thus: Tie2 kinase assay (Tie2-TR-FRET). Particulars: ATP concentration 1 mM, in some cases means of several independent determinations. Format: biochemical. In short, it runs like this:
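High ATP (1 mM final) with 1 μM biotin-peptide substrate; reaction 60 min at 22 °C after 15 min compound pre-binding to GST-Tie2 (aa 776-1124) in HEPES pH 7 with Mg/Mn. Phosphopeptide detected by TR-FRET emission ratio 665/620 nm. IC50 from 4-parameter fit over 20 μM to 0.073 nM, duplicates.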
A general note: TR-FRET usually uses a lanthanide donor and a delayed reading to cut background.

T1 sequence (Q02763 23-1124): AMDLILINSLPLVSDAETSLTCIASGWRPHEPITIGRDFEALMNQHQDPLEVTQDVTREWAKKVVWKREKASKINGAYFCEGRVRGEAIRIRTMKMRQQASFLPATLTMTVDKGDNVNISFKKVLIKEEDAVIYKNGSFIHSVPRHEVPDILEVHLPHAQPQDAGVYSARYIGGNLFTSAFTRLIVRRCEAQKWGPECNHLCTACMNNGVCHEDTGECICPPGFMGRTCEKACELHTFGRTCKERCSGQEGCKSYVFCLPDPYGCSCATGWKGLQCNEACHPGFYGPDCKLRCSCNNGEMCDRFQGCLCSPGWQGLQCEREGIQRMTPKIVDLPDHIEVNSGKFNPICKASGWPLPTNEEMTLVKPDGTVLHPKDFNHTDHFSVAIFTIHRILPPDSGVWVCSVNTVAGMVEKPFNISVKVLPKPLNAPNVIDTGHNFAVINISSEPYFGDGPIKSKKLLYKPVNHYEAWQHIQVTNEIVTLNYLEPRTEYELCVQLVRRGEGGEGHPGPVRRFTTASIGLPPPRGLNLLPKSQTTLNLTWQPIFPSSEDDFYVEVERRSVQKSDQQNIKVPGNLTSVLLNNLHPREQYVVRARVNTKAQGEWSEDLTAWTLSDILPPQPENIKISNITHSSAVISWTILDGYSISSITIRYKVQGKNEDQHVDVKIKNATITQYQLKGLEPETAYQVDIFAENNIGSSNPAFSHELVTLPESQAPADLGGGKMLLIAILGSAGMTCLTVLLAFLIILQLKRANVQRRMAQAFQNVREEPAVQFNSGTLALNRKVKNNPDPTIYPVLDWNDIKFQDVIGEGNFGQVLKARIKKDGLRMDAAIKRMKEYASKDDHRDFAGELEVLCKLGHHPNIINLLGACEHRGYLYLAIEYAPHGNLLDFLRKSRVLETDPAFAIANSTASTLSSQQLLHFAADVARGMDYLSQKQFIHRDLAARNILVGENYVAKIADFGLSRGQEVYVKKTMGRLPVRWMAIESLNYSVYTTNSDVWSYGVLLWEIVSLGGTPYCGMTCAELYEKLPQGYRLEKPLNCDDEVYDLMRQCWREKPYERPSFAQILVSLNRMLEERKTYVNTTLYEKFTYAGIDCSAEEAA
T2 sequence (Q02763 776-1124): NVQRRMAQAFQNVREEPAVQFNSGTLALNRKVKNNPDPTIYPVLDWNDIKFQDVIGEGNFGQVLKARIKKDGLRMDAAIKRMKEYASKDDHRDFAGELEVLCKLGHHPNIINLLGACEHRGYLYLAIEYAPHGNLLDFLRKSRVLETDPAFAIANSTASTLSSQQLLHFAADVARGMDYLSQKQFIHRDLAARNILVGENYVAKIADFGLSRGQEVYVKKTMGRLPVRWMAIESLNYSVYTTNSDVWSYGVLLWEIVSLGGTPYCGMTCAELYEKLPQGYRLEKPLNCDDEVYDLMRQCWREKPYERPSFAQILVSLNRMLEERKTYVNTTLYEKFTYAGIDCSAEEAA

The IC50 is the point on the concentration scale where inhibition reaches its midpoint. Consider `Cc1ccc(NC(=O)c2cc(N3CCN(C)CC3)cc(S(F)(F)(F)(F)F)c2)cc1-n1ccn2nc(-c3cn[nH]c3)cc12` [Example 2, 3-(4-Methylpiperazin-1-yl)-N-{4-methyl-3-[6-(1H-pyrazol-4-yl)-1H-imidazo[1,2-b]pyrazol-1-yl]-phenyl}-5-(pentafluoro-λ^6-sulphanyl)benzamide], for which the IC50 against endogenous Tie2 receptor turned out to be 7.6 nM; in test [1], 6 nM.
Regarding `Cc1ccc(-n2ccn3nc(-c4cccnc4)cc23)cc1NC(=O)c1cc(C#N)cc(S(F)(F)(F)(F)F)c1` [Example 77], the concentration for half-maximal inhibition (IC50) against endogenous Tie2 receptor worked out at 8.8 nM; in test [1], 13 nM.
In the case of `Cc1ccc(NC(=O)c2cc(N3CCN(C)CC3)cc(S(F)(F)(F)(F)F)c2)cc1-n1ccn2nc(-c3cccnc3)cc12` [Example 18, 3-(4-Methylpiperazin-1-yl)-N-{4-methyl-3-[6-(pyridin-3-yl)-1H-imidazo[1,2-b]pyrazol-1-yl]-phenyl}-5-(pentafluoro-λ^6-sulphanyl)benzamide], the figures for the IC50 (against endogenous Tie2 receptor; in test [1]) were 11 nM and 0.7 nM, respectively.
In the same order, the values of `Cc1ccc(NC(=O)c2cc(F)cc(S(F)(F)(F)(F)F)c2)cc1-n1ccn2nc(-c3cccnc3)cc12` [Example 88, 3-Fluoro-N-{4-methyl-3-[6-(pyridin-3-yl)-1H-imidazo[1,2-b]pyrazol-1-yl]phenyl}-5-(pentafluoro-λ^6-sulphanyl)benzamide] are 41 nM and 23 nM.
Turning to `Cc1cc(C)c(-n2ccn3nc(-c4cccnc4)cc23)cc1NC(=O)c1cc(F)cc(S(F)(F)(F)(F)F)c1` [Example 107, N-{2,4-Dimethyl-5-[6-(pyridin-3-yl)-1H-imidazo[1,2-b]pyrazol-1-yl]phenyl}-3-fluoro-5-(pentafluoro-λ^6-sulphanyl)benzamide], the half-inhibitory concentration (IC50) against endogenous Tie2 receptor is 0.9 nM; in test [1], 0.6 nM.
For `Cc1ccc(NC(=O)c2cc(C(C)(C)O)cc(S(F)(F)(F)(F)F)c2)cc1-n1ccn2nc(-c3cccnc3)cc12` [Example 32, 3-(2-Hydroxypropan-2-yl)-N-{4-methyl-3 [6-(pyridin-3-yl)-1H-imidazo[1,2-b]pyrazol-1-yl]-phenyl}-5-(pentafluoro-λ^6-sulphanyl)benzamide] the same measures were 2.1 nM and 0.4 nM.
In the same order, the values of `Cc1ccc(NC(=O)c2cc(N3CCOCC3)cc(S(F)(F)(F)(F)F)c2)cc1-n1ccn2nc(-c3cn[nH]c3)cc12` [Example 3, N-{4-Methyl-3-[6-(1H-pyrazol-4-yl)-1H-imidazo[1,2-b]pyrazol-1-yl]phenyl}-3-(morpholin-4-yl)-5-(pentafluoro-λ^6-sulphanyl)benzamide] are 3.4 nM and 1.2 nM.
In turn, `Cc1cc(C)c(-n2ccn3nc(-c4cccnc4)cc23)cc1NC(=O)c1cc(N2CCCCC2)cc(S(F)(F)(F)(F)F)c1` [Example 143, N-{2,4-Dimethyl-5-[6-(pyridin-3-yl)-1H-imidazo[1,2-b]pyrazol-1-yl]phenyl}-3-(pentafluoro-λ^6-sulphanyl)-5-(piperidin-1-yl)benzamide] yielded an IC50 in test [1] of 1.3 nM.
The same measure, in the same setting: next, `Cc1cc(C)c(-n2ccn3nc(-c4cccnc4)cc23)cc1NC(=O)c1cccc(C2(C)COC2)c1` [Example 140, N-{2,4-Dimethyl-5-[6-(pyridin-3-yl)-1H-imidazo[1,2-b]pyrazol-1-yl]phenyl}-3-(3-methyloxetan-3-yl)benzamide]: 0.5 nM; `Cc1ccc(NC(=O)c2ccc(F)c(C(F)(F)F)c2)cc1-n1ccn2nc(-c3cccnc3)cc12` [Example 45, 4-Fluoro-N-{4-methyl-3-[6-(pyridin-3-yl)-1H-imidazo[1,2-b]pyrazol-1-yl]phenyl}-3-(trifluoromethyl)benzamide]: 740 nM.
Still for that read-out and setting: under `Cc1cc(C)c(-n2ccn3nc(-c4cccnc4)cc23)cc1NC(=O)c1cc(CC(=O)O)cc(S(F)(F)(F)(F)F)c1` [Example 151, [3-({2,4-Dimethyl-5-[6-(pyridin-3-yl)-1H-imidazo[1,2-b]pyrazol-1-yl]phenyl}carbamoyl)-5-(pentafluoro-λ^6-sulphanyl)phenyl]acetic acid] stands 6.1 nM; under `Cc1ccc(-n2ccn3nc(-c4cccnc4)cc23)cc1NC(=O)c1cccc(S(F)(F)(F)(F)F)c1` [Example 76, N-{2-Methyl-5-[6-(pyridin-3-yl)-1H-imidazo[1,2-b]pyrazol-1-yl]phenyl}-3-(pentafluoro-λ^6-sulphanyl)benzamide], 82 nM; under `Cc1ccc(NC(=O)c2cc(C(C)(C)C)ccn2)cc1-n1ccn2nc(-c3cccnc3)cc12` [Example 125, 4-tert-Butyl-N-{4-methyl-3-[6-(pyridin-3-yl)-1H-imidazo[1,2-b]pyrazol-1-yl]phenyl}pyridine-2-carboxamide], 280 nM.
Same read-out and setting: next, `Cc1cc(C)c(-n2ccn3nc(-c4cccnc4)cc23)cc1NC(=O)c1cc(CC(N)=O)cc(S(F)(F)(F)(F)F)c1` [Example 153, 3-(2-Amino-2-oxoethyl)-N-{2,4-dimethyl-5-[6-(pyridin-3-yl)-1H-imidazo[1,2-b]pyrazol-1-yl]-phenyl}-5-(pentafluoro-λ^6-sulphanyl)benzamide]: 0.3 nM; `O=C(Nc1ccc(Cl)c(-n2ccn3nc(-c4cccnc4)cc23)c1)c1cccc(S(F)(F)(F)(F)F)c1` [Example 96, N-{4-Chloro-3-[6-(pyridin-3-yl)-1H-imidazo[1,2-b]pyrazol-1-yl]phenyl}-3-(pentafluoro-λ^6-sulphanyl)benzamide]: 47 nM.
In the case of `COc1ccc(NC(=O)c2cc(Br)cc(S(F)(F)(F)(F)F)c2)cc1-n1ccn2nc(-c3cccnc3)cc12` [Example 98, 3-Bromo-N-{4-methoxy-3-[6-(pyridin-3-yl)-1H-imidazo[1,2-b]pyrazol-1-yl]phenyl}-5-(pentafluoro-λ^6-sulphanyl)benzamide], the IC50 in test [1] came out at 595 nM.
The same measure, in the same setting: next, `N#Cc1cc(C(=O)Nc2cccc(-n3ccn4nc(-c5cccnc5)cc34)c2O)cc(S(F)(F)(F)(F)F)c1` [Example 83, 3-Cyano-N-{2-hydroxy-3-[6-(pyridin-3-yl)-1H-imidazo[1,2-b]pyrazol-1-yl]phenyl}-5-(pentafluoro-λ^6-sulphanyl)benzamide]: 110 nM; `Cc1ccc(NC(=O)c2cc(CO)cc(S(F)(F)(F)(F)F)c2)cc1-n1ccn2nc(-c3cccnc3)cc12` [Example 31, 3-(Hydroxymethyl)-N-{4-methyl-3-[6-(pyridin-3-yl)-1H-imidazo[1,2-b]pyrazol-1-yl]phenyl}-5-(pentafluoro-λ^6-sulphanyl)benzamide]: 1.1 nM; `Cc1cc(C)c(-n2ccn3nc(-c4cccnn4)cc23)cc1NC(=O)c1cccc(S(F)(F)(F)(F)F)c1` [Example 169, N-{2,4-Dimethyl-5-[6-(pyridazin-3-yl)-1H-imidazo[1,2-b]pyrazol-1-yl]phenyl}-3-(pentafluoro-λ^6-sulphanyl)benzamide]: 1 nM.
